Columns and labels:
SMARCA4-HiBiT = target: T1, SMARCA4-HiBiT (Homo sapiens, UniProt P51532); experiment: SMARCA4 HiBiT degradation assay in HeLa cells; format: cell-based; conditions: 18 hours incubation; for DC50: read-out: HeLa-HiBit-SM4 DC50; for Dmax: HeLa, read-out: HeLa-HiBit-SM4 Dmax (%)
T1 construct: SMARCA4-HiBiT knock-in Hela monoclonal cell (CS3023226); host or cells: HeLa monoclonal knock-in line (CRISPR HiBiT knock-in at the endogenous locus, heterozygous)
Summary of the method: (§1)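 HeLa monoclonal lines with heterozygous HiBiT knock-in were seeded at 2500 cells/well in EMEM with 10% FBS and treated with compound for 18 h at 37 °C. Remaining tagged protein was measured by Nano-Glo HiBiT lytic luminescence after 30–60 min at RT, and values came from curve fitting.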

SMARCA2-HiBiT = target: T2, SMARCA2-HiBiT (Homo sapiens, UniProt P51531); experiment: SMARCA2 HiBiT degradation assay in HeLa cells; format: cell-based; conditions: 18 hours incubation; for DC50: read-out: HeLa_HiBit-SM2 DC50; for Dmax: HeLa, read-out: HeLa-HiBit-SM2 Dmax (%)
T2 construct: SMARCA2-HiBiT knock-in Hela monoclonal cell (CS302366); host or cells: HeLa monoclonal knock-in line (CRISPR HiBiT knock-in at the endogenous locus, heterozygous)
Summary of the method: as §1

T2 sequence (P51531 whole entry): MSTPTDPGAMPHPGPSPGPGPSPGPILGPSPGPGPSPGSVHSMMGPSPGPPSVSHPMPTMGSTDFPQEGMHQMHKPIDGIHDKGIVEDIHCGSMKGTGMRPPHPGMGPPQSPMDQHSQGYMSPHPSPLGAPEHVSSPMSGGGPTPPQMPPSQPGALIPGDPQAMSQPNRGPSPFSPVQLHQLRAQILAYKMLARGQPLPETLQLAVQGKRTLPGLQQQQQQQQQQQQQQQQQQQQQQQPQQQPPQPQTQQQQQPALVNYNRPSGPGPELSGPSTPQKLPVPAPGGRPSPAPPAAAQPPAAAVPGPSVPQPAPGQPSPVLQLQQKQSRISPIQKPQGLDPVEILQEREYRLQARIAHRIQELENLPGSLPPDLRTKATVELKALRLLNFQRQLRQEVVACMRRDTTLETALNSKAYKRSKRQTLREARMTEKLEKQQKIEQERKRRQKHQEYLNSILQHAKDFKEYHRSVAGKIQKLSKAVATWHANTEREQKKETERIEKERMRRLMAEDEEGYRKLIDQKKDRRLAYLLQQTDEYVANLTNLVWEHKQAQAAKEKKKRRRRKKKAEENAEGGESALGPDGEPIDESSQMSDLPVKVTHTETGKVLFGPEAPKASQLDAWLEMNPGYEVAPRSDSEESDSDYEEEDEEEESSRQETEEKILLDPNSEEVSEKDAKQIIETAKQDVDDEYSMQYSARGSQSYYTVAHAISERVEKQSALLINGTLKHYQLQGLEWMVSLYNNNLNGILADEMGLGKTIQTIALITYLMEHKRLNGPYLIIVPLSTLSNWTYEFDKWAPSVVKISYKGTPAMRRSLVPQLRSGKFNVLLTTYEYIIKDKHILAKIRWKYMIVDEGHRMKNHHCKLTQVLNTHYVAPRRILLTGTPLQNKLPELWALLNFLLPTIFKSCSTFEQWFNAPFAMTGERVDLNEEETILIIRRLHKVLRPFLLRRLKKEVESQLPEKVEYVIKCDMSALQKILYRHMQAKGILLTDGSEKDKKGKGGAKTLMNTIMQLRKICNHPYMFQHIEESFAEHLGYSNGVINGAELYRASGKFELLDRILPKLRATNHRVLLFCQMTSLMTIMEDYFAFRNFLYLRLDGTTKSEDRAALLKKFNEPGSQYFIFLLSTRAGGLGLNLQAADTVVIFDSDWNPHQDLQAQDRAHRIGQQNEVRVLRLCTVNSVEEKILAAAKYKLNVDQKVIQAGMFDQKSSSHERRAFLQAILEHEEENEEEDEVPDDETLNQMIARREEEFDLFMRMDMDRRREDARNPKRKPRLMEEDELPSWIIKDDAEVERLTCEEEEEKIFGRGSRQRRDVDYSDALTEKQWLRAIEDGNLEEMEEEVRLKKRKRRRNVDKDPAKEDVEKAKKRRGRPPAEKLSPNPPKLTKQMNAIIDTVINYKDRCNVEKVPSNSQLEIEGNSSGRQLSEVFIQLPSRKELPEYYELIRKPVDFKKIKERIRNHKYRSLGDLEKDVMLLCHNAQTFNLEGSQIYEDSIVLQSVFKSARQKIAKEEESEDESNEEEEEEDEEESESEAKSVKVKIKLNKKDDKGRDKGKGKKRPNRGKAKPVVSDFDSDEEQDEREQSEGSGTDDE
T1 sequence (P51532 whole entry): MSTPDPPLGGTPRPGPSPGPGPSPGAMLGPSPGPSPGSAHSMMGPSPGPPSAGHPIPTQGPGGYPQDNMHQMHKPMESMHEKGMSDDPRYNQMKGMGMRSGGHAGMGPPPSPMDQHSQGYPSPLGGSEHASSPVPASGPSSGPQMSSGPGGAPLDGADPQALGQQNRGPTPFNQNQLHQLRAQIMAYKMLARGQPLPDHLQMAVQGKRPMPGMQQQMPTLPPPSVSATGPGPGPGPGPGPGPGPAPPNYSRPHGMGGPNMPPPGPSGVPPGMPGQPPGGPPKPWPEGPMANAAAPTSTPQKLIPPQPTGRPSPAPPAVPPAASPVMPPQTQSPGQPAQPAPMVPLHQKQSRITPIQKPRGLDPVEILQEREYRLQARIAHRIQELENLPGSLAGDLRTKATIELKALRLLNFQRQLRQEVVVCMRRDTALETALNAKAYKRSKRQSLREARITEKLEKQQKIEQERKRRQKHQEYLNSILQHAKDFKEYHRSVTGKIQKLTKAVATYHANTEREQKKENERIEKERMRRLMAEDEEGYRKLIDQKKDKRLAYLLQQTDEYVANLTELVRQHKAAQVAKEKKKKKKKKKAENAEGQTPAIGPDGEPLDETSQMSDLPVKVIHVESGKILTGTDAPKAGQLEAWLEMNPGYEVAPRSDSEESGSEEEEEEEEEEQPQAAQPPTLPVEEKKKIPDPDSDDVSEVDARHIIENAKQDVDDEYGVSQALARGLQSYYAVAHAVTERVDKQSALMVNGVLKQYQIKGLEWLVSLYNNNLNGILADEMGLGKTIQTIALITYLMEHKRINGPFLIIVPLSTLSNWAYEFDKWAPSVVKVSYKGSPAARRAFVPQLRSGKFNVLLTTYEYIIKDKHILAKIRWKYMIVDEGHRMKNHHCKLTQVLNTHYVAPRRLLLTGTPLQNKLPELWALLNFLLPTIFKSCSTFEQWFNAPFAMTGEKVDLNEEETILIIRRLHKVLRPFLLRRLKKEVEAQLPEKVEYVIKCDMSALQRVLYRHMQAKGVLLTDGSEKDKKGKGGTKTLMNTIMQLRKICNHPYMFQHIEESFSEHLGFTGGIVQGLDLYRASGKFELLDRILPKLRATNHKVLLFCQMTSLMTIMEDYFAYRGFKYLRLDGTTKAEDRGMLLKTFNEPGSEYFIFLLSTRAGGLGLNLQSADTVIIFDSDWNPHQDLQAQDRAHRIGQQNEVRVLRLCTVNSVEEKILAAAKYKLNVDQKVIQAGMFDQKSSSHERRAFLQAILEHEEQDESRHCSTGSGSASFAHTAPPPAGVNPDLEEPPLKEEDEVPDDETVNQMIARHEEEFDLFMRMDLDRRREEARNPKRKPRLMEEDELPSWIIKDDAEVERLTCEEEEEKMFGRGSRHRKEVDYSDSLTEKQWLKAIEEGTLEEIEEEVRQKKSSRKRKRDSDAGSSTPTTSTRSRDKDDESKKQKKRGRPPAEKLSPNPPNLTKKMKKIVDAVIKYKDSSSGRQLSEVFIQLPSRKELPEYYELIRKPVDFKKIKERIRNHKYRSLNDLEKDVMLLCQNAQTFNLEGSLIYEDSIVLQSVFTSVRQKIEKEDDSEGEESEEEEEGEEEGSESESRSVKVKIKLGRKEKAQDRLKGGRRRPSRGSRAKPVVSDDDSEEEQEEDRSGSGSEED

O=C1CCC(N2C(=O)c3ccc(N4CCC(CN5CCC(CN6CCN7c8cc(-c9ccccc9O)nnc8NC[C@H]7C6)CC5)C4)cc3C2=O)C(=O)N1 (stereo partly drawn) [Example 225, 2-(2,6-dioxopiperidin-3-yl)-5-(3-((4-(((S)-2-(2-hydroxyphenyl)-5,6,6a,7,9,10-hexahydro-8H-pyrazino[1′,2′:4,5]pyrazino[2,3-c]pyridazin-8-yl)methyl)piperidin-1-yl)methyl)pyrrolidin-1-yl)isoindoline-1,3-dione]
DC50 (SMARCA4-HiBiT): < 10 nM | Dmax (SMARCA4-HiBiT): > 85% | DC50 (SMARCA2-HiBiT): < 10 nM | Dmax (SMARCA2-HiBiT): > 85%

O=C1CCC(N2C(=O)c3ccc(Oc4ccc(N5CCC(N6CCN7c8cc(-c9ccccc9O)nnc8NC[C@H]7C6)CC5)cc4)cc3C2=O)C(=O)N1 (stereo partly drawn) [Example 241, 2-(2,6-dioxopiperidin-3-yl)-5-(4-(4-((S)-2-(2-hydroxyphenyl)-5,6,6a,7,9,10-hexahydro-8H-pyrazino[1′,2′:4,5]pyrazino[2,3-c]pyridazin-8-yl)piperidin-1-yl)phenoxy)isoindoline-1,3-dione]
DC50 (SMARCA4-HiBiT): 10 to 100 nM | Dmax (SMARCA4-HiBiT): 75 to 85% | DC50 (SMARCA2-HiBiT): < 10 nM | Dmax (SMARCA2-HiBiT): 50 to 75%

O=C1CCC(N2Cc3cc(N4CCC(CN5CCC(OC(=O)N6CCN7c8cc(-c9ccccc9O)nnc8NC[C@H]7C6)CC5)CC4)ccc3C2=O)C(=O)N1 (stereo partly drawn) [Example 83, 1-((1-(2-(2,6-dioxopiperidin-3-yl)-1-oxoisoindolin-5-yl)piperidin-4-yl)methyl)piperidin-4-yl (6aS)-2-(2-hydroxyphenyl)-5,6,6a,7,9,10-hexahydro-8H-pyrazino[1′,2′:4,5]pyrazino[2,3-c]pyridazine-8-carboxylate]
DC50 (SMARCA4-HiBiT): < 10 nM | Dmax (SMARCA4-HiBiT): 75 to 85% | DC50 (SMARCA2-HiBiT): < 10 nM | Dmax (SMARCA2-HiBiT): > 85%

O=C1CCC(N2Cc3cc(CN4CCC(N5CCC(N6CCN7c8cc(-c9ccccc9O)nnc8NC[C@H]7C6)CC5)CC4)ccc3C2=O)C(=O)N1 (stereo partly drawn) [Example 63, 3-(5-((4-((S)-2-(2-hydroxyphenyl)-5,6,6a,7,9,10-hexahydro-8H-pyrazino[1′,2′:4,5]pyrazino[2,3-c]pyridazin-8-yl)-[1,4′-bipiperidin]-1′-yl)methyl)-1-oxoisoindolin-2-yl)piperidine-2,6-dione]
DC50 (SMARCA4-HiBiT): < 10 nM | Dmax (SMARCA4-HiBiT): > 85% | DC50 (SMARCA2-HiBiT): < 10 nM | Dmax (SMARCA2-HiBiT): > 85%

CC1CN(c2ccc3c(c2)C(=O)N(C2CCC(=O)NC2=O)C3=O)CCC1CN1CCC(CN2CCN3c4cc(-c5ccccc5O)nnc4NC[C@H]3C2)CC1 (stereo partly drawn) [Example 170, 2-(2,6-dioxopiperidin-3-yl)-5-[4-[[4-[[(10S)-4-(2-hydroxyphenyl)-1,5,6,8,12-pentazatricyclo[8.4.0.02,7]tetradeca-2(7),3,5-trien-12-yl]methyl]piperidin-1-yl]methyl]-3-methylpiperidin-1-yl]isoindole-1,3-dione]
DC50 (SMARCA4-HiBiT): < 10 nM | Dmax (SMARCA4-HiBiT): > 85% | DC50 (SMARCA2-HiBiT): < 10 nM | Dmax (SMARCA2-HiBiT): > 85%

O=C1CCC(N2C(=O)c3ccc(N4CCC(N[C@H]5C[C@@H](CN6CCN7c8cc(-c9ccccc9O)nnc8NC[C@H]7C6)C5)CC4)cc3C2=O)C(=O)N1 (stereo partly drawn) [Example 76, 2-(2,6-dioxopiperidin-3-yl)-5-(4-(((1R,3s)-3-(((S)-2-(2-hydroxyphenyl)-5,6,6a,7,9,10-hexahydro-8H-pyrazino[1′,2′:4,5]pyrazino[2,3-c]pyridazin-8-yl)methyl)cyclobutyl)amino)piperidin-1-yl)isoindoline-1,3-dione]
DC50 (SMARCA4-HiBiT): < 10 nM | Dmax (SMARCA4-HiBiT): > 85% | DC50 (SMARCA2-HiBiT): < 10 nM | Dmax (SMARCA2-HiBiT): > 85%

O=C1CCC(N2C(=O)c3ccc(N4CC[C@@H](CN5C[C@@H]6[C@H](C5)[C@H]6CN5CCN6c7cc(-c8ccccc8O)nnc7NC[C@H]6C5)[C@H](F)C4)cc3C2=O)C(=O)N1 (stereo partly drawn) [Example 200, 2-(2,6-dioxopiperidin-3-yl)-5-[(3S,4S)-3-fluoro-4-[[(1S,5R)-6-[[(10S)-4-(2-hydroxyphenyl)-1,5,6,8,12-pentazatricyclo [8.4.0.02,7]tetradeca-2(7),3,5-trien-12-yl]methyl]-3-azabicyclo[3.1.0]hexan-3-yl]methyl]piperidin-1-yl]isoindole-1,3-dione]
HeLa-HiBit-SM4 Dmax (%) (SMARCA4-HiBiT): C (C=50%<Dmax<=75%) | DC50 (SMARCA4-HiBiT): < 10 nM | DC50 (SMARCA2-HiBiT): < 10 nM | Dmax (SMARCA2-HiBiT): 75 to 85%

O=C1CCC(N2C(=O)c3ccc(N4CCC(CCN5C[C@@H]6[C@H](C5)[C@H]6CN5CCN6c7cc(-c8ccccc8O)nnc7NC[C@H]6C5)CC4)cc3C2=O)C(=O)N1 (stereo partly drawn) [Example 152, 2-(2,6-dioxopiperidin-3-yl)-5-(4-(2-((1R,5S,6r)-6-(((S)-2-(2-hydroxyphenyl)-5,6,6a,7,9,10-hexahydro-8H-pyrazino[1′,2′:4,5]pyrazino[2,3-c]pyridazin-8-yl)methyl)-3-azabicyclo[3.1.0]hexan-3-yl)ethyl)piperidin-1-yl)isoindoline-1,3-dione]
DC50 (SMARCA4-HiBiT): < 10 nM | Dmax (SMARCA4-HiBiT): 50 to 75% | DC50 (SMARCA2-HiBiT): < 10 nM | Dmax (SMARCA2-HiBiT): 50 to 75%

O=C1CCC(N2C(=O)c3cc(F)c(N4CCN(CC5CCN(C(=O)N6CCN7c8cc(-c9ccccc9O)nnc8NC[C@H]7C6)CC5)CC4)cc3C2=O)C(=O)N1 (stereo partly drawn) [Example 263, 2-(2,6-dioxopiperidin-3-yl)-5-fluoro-6-(4-((1-((S)-2-(2-hydroxyphenyl)-6,6a,7,8,9,10-hexahydro-5H-pyrazino[1′,2′:4,5]pyrazino[2,3-c]pyridazine-8-carbonyl)piperidin-4-yl)methyl)piperazin-1-yl)isoindoline-1,3-dione]
DC50 (SMARCA4-HiBiT): 10 to 100 nM | Dmax (SMARCA4-HiBiT): ≤ 50% | DC50 (SMARCA2-HiBiT): < 10 nM | Dmax (SMARCA2-HiBiT): ≤ 50%

O=C1CCC(N2C(=O)c3ccc(N4CCC(CN5C[C@@H]6[C@H](C5)[C@H]6CN5CCN6c7cc(-c8ccccc8O)nnc7NC[C@H]6C5)[C@@H](F)C4)cc3C2=O)C(=O)N1 (stereo in doubt) [Example 192, 2-(2,6-dioxopiperidin-3-yl)-5-[(3R,4R)-3-fluoro-4-[[(1S,5R)-6-[[(10S)-4-(2-hydroxyphenyl)-1,5,6,8,12-pentazatricyclo[8.4.0.02,7]tetradeca-2(7),3,5-trien-12-yl]methyl]-3-azabicyclo[3.1.0]hexan-3-yl]methyl]piperidin-1-yl]isoindole-1,3-dione]
DC50 (SMARCA4-HiBiT): < 10 nM | Dmax (SMARCA4-HiBiT): ≤ 50% | DC50 (SMARCA2-HiBiT): < 10 nM | Dmax (SMARCA2-HiBiT): 50 to 75%

CC1(CN2C[C@@H]3[C@@H](CN4CCN5c6cc(-c7ccccc7O)nnc6NC[C@H]5C4)[C@@H]3C2)CN(c2ccc3c(c2)C(=O)N(C2CCC(=O)NC2=O)C3=O)CCO1 (stereo partly drawn) [Example 59, 2-(2,6-dioxopiperidin-3-yl)-5-(2-(((1R,5S,6s)-6-(((S)-2-(2-hydroxyphenyl)-5,6,6a,7,9,10-hexahydro-8H-pyrazino[1′,2′:4,5]pyrazino[2,3-c]pyridazin-8-yl)methyl)-3-azabicyclo[3.1.0]hexan-3-yl)methyl)-2-methylmorpholino)isoindoline-1,3-dione]
DC50 (SMARCA4-HiBiT): 10 to 100 nM | Dmax (SMARCA4-HiBiT): 75 to 85% | DC50 (SMARCA2-HiBiT): < 10 nM | Dmax (SMARCA2-HiBiT): 75 to 85%

O=C1CCC(N2Cc3cc(N4CCC(CN5CCC(CN6CCN7c8cc(-c9ccccc9O)nnc8NC[C@H]7C6)CC5)CC4)ccc3C2=O)C(=O)N1 (stereo partly drawn) [Example 231, 3-(5-(4-((4-(((S)-2-(2-hydroxyphenyl)-5,6,6a,7,9,10-hexahydro-8H-pyrazino[1′,2′:4,5]pyrazino[2,3-c]pyridazin-8-yl)methyl)piperidin-1-yl)methyl)piperidin-1-yl)-1-oxoisoindolin-2-yl)piperidine-2,6-dione]
DC50 (SMARCA4-HiBiT): < 10 nM | Dmax (SMARCA4-HiBiT): > 85% | DC50 (SMARCA2-HiBiT): < 10 nM | Dmax (SMARCA2-HiBiT): > 85%

O=C1CCC(N2C(=O)c3ccc(N4CCC5(CC4)CC(N4C[C@@H]6[C@@H](CN7CCN8c9cc(-c%10ccccc%10O)nnc9NC[C@H]8C7)[C@@H]6C4)C5)cc3C2=O)C(=O)N1 (stereo partly drawn) [Example 93, 2-(2,6-dioxopiperidin-3-yl)-5-(2-((1R,5S,6s)-6-(((S)-2-(2-hydroxyphenyl)-5,6,6a,7,9,10-hexahydro-8H-pyrazino[1′,2′:4,5]pyrazino[2,3-c]pyridazin-8-yl)methyl)-3-azabicyclo[3.1.0]hexan-3-yl)-7-azaspiro[3.5]nonan-7-yl)isoindoline-1,3-dione]
DC50 (SMARCA4-HiBiT): < 10 nM | Dmax (SMARCA4-HiBiT): > 85% | DC50 (SMARCA2-HiBiT): < 10 nM | Dmax (SMARCA2-HiBiT): > 85%

O=C1CCC(N2C(=O)c3ccc(N4CCC(CN5CCc6cnc(N7CCN8c9cc(-c%10ccccc%10O)nnc9NC[C@H]8C7)nc6C5)CC4)cc3C2=O)C(=O)N1 (stereo partly drawn) [Example 60, 2-(2,6-dioxopiperidin-3-yl)-5-(4-((2-((S)-2-(2-hydroxyphenyl)-5,6,6a,7,9,10-hexahydro-8H-pyrazino[1′,2′:4,5]pyrazino[2,3-c]pyridazin-8-yl)-5,8-dihydropyrido[3,4-d]pyrimidin-7(6H)-yl)methyl)piperidin-1-yl) isoindoline-1,3-dione]
DC50 (SMARCA4-HiBiT): < 10 nM | Dmax (SMARCA4-HiBiT): ≤ 50% | DC50 (SMARCA2-HiBiT): < 10 nM | Dmax (SMARCA2-HiBiT): ≤ 50%

O=C1CCC(N2C(=O)c3ccc(N4CC(CN5C[C@@H]6[C@H](C5)[C@H]6CN5CCN6c7cc(-c8ccccc8O)nnc7NC[C@H]6C5)C4)cc3C2=O)C(=O)N1 (stereo partly drawn) [Example 109, 2-(2,6-dioxopiperidin-3-yl)-5-(3-(((1R,5S,6r)-6-(((S)-2-(2-hydroxyphenyl)-5,6,6a,7,9,10-hexahydro-8H-pyrazino[1′,2′:4,5]pyrazino[2,3-c]pyridazin-8-yl)methyl)-3-azabicyclo[3.1.0]hexan-3-yl)methyl)azetidin-1-yl)isoindoline-1,3-dione]
DC50 (SMARCA4-HiBiT): < 10 nM | Dmax (SMARCA4-HiBiT): > 85% | DC50 (SMARCA2-HiBiT): < 10 nM | Dmax (SMARCA2-HiBiT): > 85%

Source: US12448389B2, “BRM targeting compounds and associated methods of use” (Prelude Therapeutics Incorporated, priority 2020, dated 2025)
